Test results taken from ChEMBL document CHEMBL1201862, “PubChem BioAssay data set” (2004).
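Tested at 5 concentrations; 48 h exposure; 96-well plates; endpoints linearly interpolated, else capped at highest concentration. Here, GI50 denotes the concentration required for 50% inhibition of growth.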 Active and inactive are the calls of the source. Cut-off read from the data, not from the text of the source: active = GI50 up to about 1.1 µM and inactive = higher.

Experiments:
Test in all cases: growth of human tumour cells (NCI), 48 h
[1] = test system: OVCAR-5
[2] = test system: TK-10
[3] = test system: SF-295
[4] = test system: UACC-257
[5] = test system: LOX IMVI
[6] = test system: CCRF-CEM
[7] = test system: 786-0
[8] = test system: Hs-578T
[9] = test system: RPMI-8226
[10] = test system: NCI-H522
[11] = test system: OVCAR-4
[12] = test system: ACHN
[13] = test system: IGROV-1
[14] = test system: CAKI-1
[15] = test system: OVCAR-8
[16] = test system: M14
[17] = test system: NCI-H460
[18] = test system: DU-145
[19] = test system: HL-60

Compound: CN1C(=O)C(=CNc2ccccc2[N+](=O)[O-])C(=O)N(C)C1=O
- GI50 [1]: > 100 µM (inactive)
- GI50 [2]: > 100 µM (inactive)
- GI50 [3]: > 100 µM (inactive)
- GI50 [4]: > 100 µM (inactive)
- GI50 [5]: > 100 µM (inactive)
- GI50 [6]: > 100 µM (inactive)
- GI50 [7]: > 100 µM (inactive)
- GI50 [8]: > 100 µM (inactive)
- GI50 [9]: > 100 µM (inactive)
- GI50 [10]: > 100 µM (inactive)
- GI50 [11]: > 100 µM (inactive)
- GI50 [12]: > 100 µM (inactive)
- GI50 [13]: > 100 µM (inactive)
- GI50 [14]: > 100 µM (inactive)
- GI50 [15]: > 100 µM (inactive)
- GI50 [16]: > 100 µM (inactive)
- GI50 [17]: > 100 µM (inactive)

Compound: CC(C)(C)OC(=O)[C@@H]1CCC(=S)N1Cc1ccccc1
- GI50 [1]: > 100 µM (inactive)
- GI50 [2]: > 100 µM (inactive)
- GI50 [3]: > 100 µM (inactive)
- GI50 [4]: > 100 µM (inactive)
- GI50 [5]: > 100 µM (inactive)
- GI50 [6]: > 100 µM (inactive)
- GI50 [7]: > 100 µM (inactive)
- GI50 [9]: > 100 µM (inactive)
- GI50 [10]: > 100 µM (inactive)
- GI50 [11]: > 100 µM (inactive)
- GI50 [18]: > 100 µM (inactive)
- GI50 [12]: > 100 µM (inactive)
- GI50 [13]: > 100 µM (inactive)
- GI50 [14]: > 100 µM (inactive)
- GI50 [15]: > 100 µM (inactive)
- GI50 [16]: > 100 µM (inactive)
- GI50 [17]: > 100 µM (inactive)

Compound: CN(C)c1n/c(=N/Cc2cccnc2)ss1
- GI50 [2]: > 10 µM (inactive)
- GI50 [3]: > 10 µM (inactive)
- GI50 [4]: > 10 µM (inactive)
- GI50 [5]: 8.95 µM (inactive)
- GI50 [6]: 0.597 µM (active)
- GI50 [7]: > 10 µM (inactive)
- GI50 [9]: > 10 µM (inactive)
- GI50 [11]: > 10 µM (inactive)
- GI50 [18]: > 10 µM (inactive)
- GI50 [13]: > 10 µM (inactive)
- GI50 [14]: > 10 µM (inactive)
- GI50 [19]: 3.24 µM (inactive)
- GI50 [15]: > 10 µM (inactive)
- GI50 [16]: > 10 µM (inactive)

Compound: CCOC(=O)CCC1(CCC(=O)OCC)CCCCCCCCC(CCC(=O)OCC)(CCC(=O)OCC)C(=O)C1=O
- GI50 [1]: > 100 µM (inactive)
- GI50 [2]: > 100 µM (inactive)
- GI50 [3]: > 100 µM (inactive)
- GI50 [4]: > 100 µM (inactive)
- GI50 [5]: > 100 µM (inactive)
- GI50 [7]: > 100 µM (inactive)
- GI50 [8]: > 100 µM (inactive)
- GI50 [10]: 35.5 µM (inactive)
- GI50 [11]: > 100 µM (inactive)
- GI50 [18]: > 100 µM (inactive)
- GI50 [12]: > 100 µM (inactive)
- GI50 [13]: > 100 µM (inactive)
- GI50 [14]: > 100 µM (inactive)
- GI50 [15]: > 100 µM (inactive)
- GI50 [16]: > 100 µM (inactive)
- GI50 [17]: > 100 µM (inactive)

Compound: COC(=O)CCCc1ccc2c(c1)CC1(Cc3ccccc3C1)C2
- GI50 [1]: > 100 µM (inactive)
- GI50 [2]: > 100 µM (inactive)
- GI50 [3]: > 100 µM (inactive)
- GI50 [4]: 32.2 µM (inactive)
- GI50 [5]: 40.3 µM (inactive)
- GI50 [6]: 29.6 µM (inactive)
- GI50 [7]: > 100 µM (inactive)
- GI50 [8]: > 100 µM (inactive)
- GI50 [9]: 28.4 µM (inactive)
- GI50 [10]: 47.6 µM (inactive)
- GI50 [11]: 63 µM (inactive)
- GI50 [12]: 75.3 µM (inactive)
- GI50 [13]: > 100 µM (inactive)
- GI50 [15]: 70.1 µM (inactive)
- GI50 [16]: 44.4 µM (inactive)

Compound: O=C1CC2(c3ccccc3)ON=C(c3ccccc3)N2c2ccccc2N1 (centres undefined)
- GI50 [1]: > 100 µM (inactive)
- GI50 [2]: 93.5 µM (inactive)
- GI50 [3]: > 100 µM (inactive)
- GI50 [4]: 71.8 µM (inactive)
- GI50 [5]: 66.4 µM (inactive)
- GI50 [6]: 42.2 µM (inactive)
- GI50 [7]: 88.7 µM (inactive)
- GI50 [9]: 63.4 µM (inactive)
- GI50 [10]: 41.6 µM (inactive)
- GI50 [11]: > 100 µM (inactive)
- GI50 [18]: 61.5 µM (inactive)
- GI50 [12]: 61.8 µM (inactive)
- GI50 [13]: 58.5 µM (inactive)
- GI50 [19]: 26.7 µM (inactive)
- GI50 [15]: 77.1 µM (inactive)
- GI50 [16]: 60.4 µM (inactive)
- GI50 [17]: 36.7 µM (inactive)

Compound: C=CCCCn1ccc2ccccc21
- GI50 [1]: > 100 µM (inactive)
- GI50 [2]: > 100 µM (inactive)
- GI50 [3]: > 100 µM (inactive)
- GI50 [4]: > 100 µM (inactive)
- GI50 [5]: > 100 µM (inactive)
- GI50 [6]: > 100 µM (inactive)
- GI50 [7]: > 100 µM (inactive)
- GI50 [9]: > 100 µM (inactive)
- GI50 [10]: > 100 µM (inactive)
- GI50 [12]: > 100 µM (inactive)
- GI50 [13]: > 100 µM (inactive)
- GI50 [19]: > 100 µM (inactive)
- GI50 [15]: > 100 µM (inactive)
- GI50 [16]: > 100 µM (inactive)
- GI50 [17]: > 100 µM (inactive)

Compound: CN(C)c1ccc(/C=C2\C[C@H]3[C@@H]4CCc5cc(OCCN6CCCC6)ccc5[C@H]4CC[C@]3(C)C2=O)cc1
- GI50 [1]: 2.03 µM (inactive)
- GI50 [2]: 1.64 µM (inactive)
- GI50 [3]: 1.86 µM (inactive)
- GI50 [4]: 2.21 µM (inactive)
- GI50 [6]: 1.13 µM (inactive)
- GI50 [7]: 1.32 µM (inactive)
- GI50 [9]: 1.75 µM (inactive)
- GI50 [11]: 1.63 µM (inactive)
- GI50 [18]: 1.89 µM (inactive)
- GI50 [12]: 1.73 µM (inactive)
- GI50 [13]: 1.13 µM (inactive)
- GI50 [14]: 1.45 µM (inactive)
- GI50 [17]: 1.59 µM (inactive)

Compound: CN(C)CCCNC(=O)CCNC(=O)c1cc(NC(=O)c2cc(NC(=O)c3cc(NC(=O)CCCNC(=O)c4cc(NC(=O)c5cc(NC(=O)c6nccn6C)cn5C)cn4C)cn3C)cn2C)cn1C
- GI50 [1]: > 100 µM (inactive)
- GI50 [2]: > 100 µM (inactive)
- GI50 [3]: > 100 µM (inactive)
- GI50 [4]: > 100 µM (inactive)
- GI50 [5]: > 100 µM (inactive)
- GI50 [6]: > 100 µM (inactive)
- GI50 [7]: > 100 µM (inactive)
- GI50 [8]: > 100 µM (inactive)
- GI50 [9]: > 100 µM (inactive)
- GI50 [10]: > 100 µM (inactive)
- GI50 [11]: > 100 µM (inactive)
- GI50 [12]: > 100 µM (inactive)
- GI50 [13]: > 100 µM (inactive)
- GI50 [14]: > 100 µM (inactive)
- GI50 [19]: > 100 µM (inactive)
- GI50 [15]: > 100 µM (inactive)
- GI50 [16]: > 100 µM (inactive)
- GI50 [17]: > 100 µM (inactive)

Compound: O=C(c1ccc(Br)cc1)n1c2ccc(Br)cc2c2nc3ccccc3nc21
- GI50 [1]: > 100 µM (inactive)
- GI50 [2]: > 100 µM (inactive)
- GI50 [3]: > 100 µM (inactive)
- GI50 [4]: > 100 µM (inactive)
- GI50 [5]: > 100 µM (inactive)
- GI50 [6]: > 100 µM (inactive)
- GI50 [7]: > 100 µM (inactive)
- GI50 [9]: > 100 µM (inactive)
- GI50 [10]: > 100 µM (inactive)
- GI50 [11]: > 100 µM (inactive)
- GI50 [18]: > 100 µM (inactive)
- GI50 [12]: > 100 µM (inactive)
- GI50 [13]: > 100 µM (inactive)
- GI50 [14]: > 100 µM (inactive)
- GI50 [19]: 83.6 µM (inactive)
- GI50 [15]: > 100 µM (inactive)
- GI50 [16]: > 100 µM (inactive)
- GI50 [17]: > 100 µM (inactive)

Compound: COc1ccc2c(c1)/C(=C\c1c(C)nc3n1CCS3)C(=O)N2
- GI50 [1]: 42.3 µM (inactive)
- GI50 [2]: 35.8 µM (inactive)
- GI50 [3]: 16.4 µM (inactive)
- GI50 [4]: 47.6 µM (inactive)
- GI50 [5]: 26.5 µM (inactive)
- GI50 [6]: 24.7 µM (inactive)
- GI50 [7]: 35.2 µM (inactive)
- GI50 [9]: 34.5 µM (inactive)
- GI50 [18]: 39.1 µM (inactive)
- GI50 [12]: 40.5 µM (inactive)
- GI50 [13]: 16.7 µM (inactive)
- GI50 [14]: 33.4 µM (inactive)
- GI50 [19]: 15.6 µM (inactive)
- GI50 [15]: 37 µM (inactive)
- GI50 [16]: 23 µM (inactive)
- GI50 [17]: 20 µM (inactive)

Compound: CCCCCCCCCCCCCCCCOCC(CC(F)(F)P(=O)(O)O)OC(C)=O (centres undefined)
- GI50 [1]: > 50 µM (inactive)
- GI50 [2]: > 50 µM (inactive)
- GI50 [3]: > 50 µM (inactive)
- GI50 [4]: > 50 µM (inactive)
- GI50 [7]: > 50 µM (inactive)
- GI50 [9]: > 50 µM (inactive)
- GI50 [10]: > 50 µM (inactive)
- GI50 [18]: > 50 µM (inactive)
- GI50 [12]: > 50 µM (inactive)
- GI50 [13]: > 50 µM (inactive)
- GI50 [14]: > 50 µM (inactive)
- GI50 [16]: > 50 µM (inactive)
- GI50 [17]: > 50 µM (inactive)
